Measurements reported in patent US7776833B2, “Use of cyclic bioisosters of purine system derivatives for treating diseases produced by disorders of niterergic and dopaminergic systems” (priority 2003, dated 2010).

What was measured:
Type in all cases: in vivo, Wistar rats
[1] = test system: physical dependence from morphine (morphine abstinence); assay: Morphine abstinence syndrome, signs scored in the open field test; details: Morphine − (morphine + compound); compound 3 x 20 mg/kg intramuscularly; one value for the three compounds
[2] = test system: nitrites and nitrates (NOx-); assay: Measurement of nitrates/nitrites (NOx-) in brain regions after the morphine abstinence experiment; details: 3 x 20 mg/kg intramuscularly
Method in brief: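 Rat brain regions homogenized in 20 mM HEPES pH 7.5 at 4 °C; deproteinized supernatants treated with nitrate reductase, 25 μM NADPH, 25 μM FAD (37 °C, 30 min), then DAN in acid; naphthotriazole fluorescence (ex 365/em 405 nm) against sodium nitrate standard, expressed as nmol/mg protein (Bradford).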

[3] = test system: nitric oxide synthase (NOS); assay: Nitric oxide synthase activity in brain regions, radiometric [3H]L-citrulline method; details: 3 x 20 mg/kg intramuscularly
Method in brief: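 Rat cortex, hippocampus, mesencephalon, striatum, brainstem, hypothalamus and cerebellum were homogenized in 20 mM HEPES pH 7.5, and the 11000 g supernatant was incubated 15-60 min at 37 °C with [3H]L-arginine, 0.2 mM CaCl2, FAD, FMN, NADPH and BH4. [3H]L-citrulline was counted after Dowex removal of arginine. Ca2+-dependent/independent activity was split using EDTA ± L-NAME, per mg Bradford protein.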

[4] = Groups Nos. 3-14, compound without morphine, one value for all 12 compounds
[5] = Morphine + compound, one value for the three compounds

Compound	Authentic differences (ξ-square criterion) in appearance of signs of abstinence: <<Wet dog>> shakes [1]	Authentic differences (ξ-square criterion) in appearance of signs of abstinence: Aggression [1]	Authentic differences (ξ-square criterion) in appearance of signs of abstinence: Convulsions [1]	Authentic differences (ξ-square criterion) in appearance of signs of abstinence: Diarrhea [1]	Authentic differences (ξ-square criterion) in appearance of signs of abstinence: Dyspnea [1]	Authentic differences (ξ-square criterion) in appearance of signs of abstinence: Forelimb jogging [1]	Authentic differences (ξ-square criterion) in appearance of signs of abstinence: Grit with teeth [1]	Authentic differences (ξ-square criterion) in appearance of signs of abstinence: Mastication [1]	Authentic differences (ξ-square criterion) in appearance of signs of abstinence: Piloerection [1]	Authentic differences (ξ-square criterion) in appearance of signs of abstinence: Ptosis [1]	Authentic differences (ξ-square criterion) in appearance of signs of abstinence: Rhinorrhea [1]	Authentic differences (ξ-square criterion) in appearance of signs of abstinence: Squeak when touched [1]	Nitrites, brainstem [2, 4]	Nitrites, cerebellum [2, 4]	Nitrites, cerebral cortex [2, 4]	Nitrites, hippocampus [2, 4]	Nitrites, hypothalamus [2, 4]	Nitrites, midbrain [2, 4]	Nitrites, striatum [2, 4]	Nitrites, brainstem [2, 5]	also measured
O=C([O-])c1cnc2c(=O)[nH]n([C@@H]3O[C@H](CO)[C@@H](O)[C@H]3O)c(=O)c2n1.O=C([O-])c1cnc2c(=O)[nH]n([C@@H]3O[C@H](CO)[C@@H](O)[C@H]3O)c(=O)c2n1.[Na+].[Na+] [Compound 24, disodium salt of 2-carboxy-7-(β-D-ribofuranosile)pyrazino[2,3-d]-6H-pyridazine-5,8-dione]	0.7821	0.7921	0.3456	0.0067	0.0567	0.6745	0.2994	0.1975	0.2567	0.0105	0.2131	0.1968	6.31 ± 0.58 nmol/mg of protein	6.66 ± 0.63 nmol/mg of protein	4.31 ± 0.37 nmol/mg of protein	6.47 ± 0.72 nmol/mg of protein	6.77 ± 0.83 nmol/mg of protein	6.65 ± 0.70 nmol/mg of protein	6.11 ± 0.29 nmol/mg of protein	7.07 ± 0.85 nmol/mg of protein	Nitrites, cerebellum [2, 5]: 5.76 ± 0.49 nmol/mg of protein; Nitrites, cerebral cortex [2, 5]: 4.62 ± 0.27 nmol/mg of protein; Nitrites, hippocampus [2, 5]: 5.27 ± 0.41 nmol/mg of protein; Nitrites, hypothalamus [2, 5]: 6.87 ± 0.75 nmol/mg of protein; Nitrites, midbrain [2, 5]: 5.99 ± 0.58 nmol/mg of protein; Nitrites, striatum [2, 5]: 3.57 ± 0.42 nmol/mg of protein; Activity of NOS, hippocampus [3, 4]: 3.09 ± 0.16 nmol/min/mg of protein; Activity of NOS, hypothalamus [3, 4]: 5.45 ± 0.24 nmol/min/mg of protein; Activity of NOS, midbrain [3, 4]: 2.60 ± 0.29 nmol/min/mg of protein; Activity of NOS, striatum [3, 4]: 1.26 ± 0.08 nmol/min/mg of protein; Activity of NOS, hippocampus [3, 5]: 2.33 ± 0.11 nmol/min/mg of protein; Activity of NOS, hypothalamus [3, 5]: 5.47 ± 0.32 nmol/min/mg of protein; Activity of NOS, midbrain [3, 5]: 2.03 ± 0.31 nmol/min/mg of protein; Activity of NOS, striatum [3, 5]: 1.21 ± 0.10 nmol/min/mg of protein
O=c1[nH][nH]c(=O)c2nccnc12.[Li] [Compound 26, lithium salt of pyrazino[2,3-d]-6H-pyridazine-5,8-dione]	0.7821	0.7921	0.3456	0.0067	0.0567	0.6745	0.2994	0.1975	0.2567	0.0105	0.2131	0.1968	6.31 ± 0.58 nmol/mg of protein	6.66 ± 0.63 nmol/mg of protein	4.31 ± 0.37 nmol/mg of protein	6.47 ± 0.72 nmol/mg of protein	6.77 ± 0.83 nmol/mg of protein	6.65 ± 0.70 nmol/mg of protein	6.11 ± 0.29 nmol/mg of protein	7.07 ± 0.85 nmol/mg of protein	Nitrites, cerebellum [2, 5]: 5.76 ± 0.49 nmol/mg of protein; Nitrites, cerebral cortex [2, 5]: 4.62 ± 0.27 nmol/mg of protein; Nitrites, hippocampus [2, 5]: 5.27 ± 0.41 nmol/mg of protein; Nitrites, hypothalamus [2, 5]: 6.87 ± 0.75 nmol/mg of protein; Nitrites, midbrain [2, 5]: 5.99 ± 0.58 nmol/mg of protein; Nitrites, striatum [2, 5]: 3.57 ± 0.42 nmol/mg of protein; Activity of NOS, hippocampus [3, 4]: 3.09 ± 0.16 nmol/min/mg of protein; Activity of NOS, hypothalamus [3, 4]: 5.45 ± 0.24 nmol/min/mg of protein; Activity of NOS, midbrain [3, 4]: 2.60 ± 0.29 nmol/min/mg of protein; Activity of NOS, striatum [3, 4]: 1.26 ± 0.08 nmol/min/mg of protein; Activity of NOS, hippocampus [3, 5]: 2.33 ± 0.11 nmol/min/mg of protein; Activity of NOS, hypothalamus [3, 5]: 5.47 ± 0.32 nmol/min/mg of protein; Activity of NOS, midbrain [3, 5]: 2.03 ± 0.31 nmol/min/mg of protein; Activity of NOS, striatum [3, 5]: 1.21 ± 0.10 nmol/min/mg of protein
O=c1[nH]n([C@@H]2O[C@H](CO)[C@@H](O)[C@H]2O)c(=O)c2nc(Br)ncc12.[Na] [Compound 32, sodium salt of 2-bromine-7-(β-D-ribofuranosile)pyrimido[4,5-d]-6H-pyridazine-5,8-dione]	1.0000	0.8456	0.5578	0.0001	0.0685	0.9321	0.7003	0.1888	0.2345	0.0232	0.2935	0.2035	6.31 ± 0.58 nmol/mg of protein	6.66 ± 0.63 nmol/mg of protein	4.31 ± 0.37 nmol/mg of protein	6.47 ± 0.72 nmol/mg of protein	6.77 ± 0.83 nmol/mg of protein	6.65 ± 0.70 nmol/mg of protein	6.11 ± 0.29 nmol/mg of protein	6.87 ± 0.81 nmol/mg of protein	Nitrites, cerebellum [2, 5]: 5.93 ± 0.54 nmol/mg of protein; Nitrites, cerebral cortex [2, 5]: 4.84 ± 0.31 nmol/mg of protein; Nitrites, hippocampus [2, 5]: 5.31 ± 0.33 nmol/mg of protein; Nitrites, hypothalamus [2, 5]: 6.77 ± 0.46 nmol/mg of protein; Nitrites, midbrain [2, 5]: 5.95 ± 0.52 nmol/mg of protein; Nitrites, striatum [2, 5]: 3.57 ± 0.42 nmol/mg of protein; Activity of NOS, hippocampus [3, 4]: 3.09 ± 0.16 nmol/min/mg of protein; Activity of NOS, hypothalamus [3, 4]: 5.45 ± 0.24 nmol/min/mg of protein; Activity of NOS, midbrain [3, 4]: 2.60 ± 0.29 nmol/min/mg of protein; Activity of NOS, striatum [3, 4]: 1.26 ± 0.08 nmol/min/mg of protein; Activity of NOS, hippocampus [3, 5]: 2.65 ± 0.15 nmol/min/mg of protein; Activity of NOS, hypothalamus [3, 5]: 5.56 ± 0.34 nmol/min/mg of protein; Activity of NOS, midbrain [3, 5]: 1.89 ± 0.27 nmol/min/mg of protein; Activity of NOS, striatum [3, 5]: 1.34 ± 0.09 nmol/min/mg of protein
